Test results reported in patent US6822120B2, “Sulfone liver X-receptor modulators” (Pharmacia Corporation, priority 2002, dated 2004).

Row | SMILES | melting point [°C]
1 | O=S(=O)(c1ccccc1)C(Cc1ccccc1)c1ccc(C(O)(C(F)(F)F)C(F)(F)F)cc1 (stereo not drawn) [Example 9, 1,1,1,3,3,3-Hexafluoro-2-{4-[2-phenyl-1-(phenylsulfonyl)ethyl]phenyl}propan-2-ol] | 157
2 | CC(C)(C)C(=O)C(c1ccc(C(O)(C(F)(F)F)C(F)(F)F)cc1)S(=O)(=O)c1ccccc1 (stereo not drawn) [Example 11, 3,3-Dimethyl-1-(phenylsulfonyl)-1-{4-[2,2,2-trifluoro-1-hydroxy-1-(trifluoromethyl) -ethyl]phenyl}butan-2-one] | 172
3 | O=S(=O)(c1ccccc1)C(CC(F)(F)F)c1ccc(C(O)(C(F)(F)F)C(F)(F)F)cc1 (stereo not drawn) [Example 16, 1,1,1,3,3,3-Hexafluoro-2-{4-[3,3,3-trifluoro-1-(phenylsulfonyl)propyl]phenyl}propan-2-ol] | 151
4 | Cc1ccc(CC(c2ccc(C(O)(C(F)(F)F)C(F)(F)F)cc2)S(=O)(=O)c2ccccc2)cc1 (stereo not drawn) [Example 17, 1,1,1,3,3,3-Hexafluoro-2-{4-[2-(4-methylphenyl)-1-(phenylsulfonyl)ethyl]phenyl}propan-2-ol] | 159
5 | O=S(=O)(c1ccccc1)C(Cc1ccc(-c2ccccc2)cc1)c1ccc(C(O)(C(F)(F)F)C(F)(F)F)cc1 (stereo not drawn) [Example 18, 2-{4-[2-(1,1′-Biphenyl-4-yl)-1-(phenylsulfonyl)ethyl]phenyl}-1,1,1,3,3,3-hexafluoropropan-2-ol] | 192
6 | CC(C)(c1ccc(C(O)(C(F)(F)F)C(F)(F)F)cc1)S(=O)(=O)c1ccccc1 [Example 19, 1,1,1,3,3,3-Hexafluoro-2-{4-[1-methyl-1-(phenylsulfonyl)ethyl]phenyl}propan-2-ol] | 185

Now from value to molecule:

Row | melting point [°C] | SMILES
7 | 129 | Cc1ccc(S(=O)(=O)Cc2ccc(C(O)(C(F)(F)F)C(F)(F)F)cc2)cc1 [Example 2, 1,1,1,3,3,3-Hexafluoro-2-(4-{[(4-methylphenyl)sulfonyl]methyl}phenyl)propan-2-ol]
8 | 148 | O=S(=O)(Cc1ccc(C(O)(C(F)(F)F)C(F)(F)F)cc1)c1ccc2ccccc2c1 [Example 3, 1,1,1,3,3,3-Hexafluoro-2-{4-[(2-naphthylsulfonyl)methyl]phenyl}propan-2-ol]
9 | 126 | O=S(=O)(Cc1ccc(C(O)(C(F)(F)F)C(F)(F)F)cc1)c1ccc(Br)cc1 [Example 4, 2-(4-{[(4-Bromophenyl)sulfonyl]methyl}phenyl)-1,1,1,3,3,3-hexafluoropropan-2-ol]
10 | 124 | O=S(=O)(Cc1ccc(C(O)(C(F)(F)F)C(F)(F)F)cc1)c1ccccc1Br [Example 5, 2-(4-{[(2-Bromophenyl)sulfonyl]methyl}phenyl)-1,1,1,3,3,3-hexafluoropropan-2-ol]
11 | 121 | O=S(=O)(Cc1ccc(C(O)(C(F)(F)F)C(F)(F)F)cc1)c1cccc(Br)c1 [Example 6, 2-(4-{[(3-Bromophenyl)sulfonyl]methyl}phenyl)-1,1,1,3,3,3-hexafluoropropan-2-ol]
12 | 112 | O=S(=O)(Cc1ccc(C(O)(C(F)(F)F)C(F)(F)F)cc1)c1ccc(Cl)cc1 [Example 7, 2-(4-{[(4-Chlorophenyl)sulfonyl]methyl}phenyl)-1,1,1,3,3,3-hexafluoropropan-2-ol]
13 | 136 | CC(c1ccc(C(O)(C(F)(F)F)C(F)(F)F)cc1)S(=O)(=O)c1ccccc1 (stereo not drawn) [Example 8, 1,1,1,3,3,3-Hexafluoro-2-{4-[1-(phenylsulfonyl)ethyl]phenyl}propan-2-ol]
14 | 148 | C=CCC(c1ccc(C(O)(C(F)(F)F)C(F)(F)F)cc1)S(=O)(=O)c1ccccc1 (stereo not drawn) [Example 14, 1,1,1,3,3,3-Hexafluoro-2-{4-[1-(phenylsulfonyl)but-3-enyl]phenyl}propan-2-ol]
15 | 148 | CCC(c1ccc(C(O)(C(F)(F)F)C(F)(F)F)cc1)S(=O)(=O)c1ccccc1 (stereo not drawn) [Example 15, 1,1,1,3,3,3-Hexafluoro-2-{4-[1-(phenylsulfonyl)propyl]phenyl}propan-2-ol]
